The results in this text go back to article PMC6736730 (Biochemistry, 2019).

Each structure is given as a SMILES string.

Test [1] deals with T1, msAPAH (Marinobacter subterrani, UniProt A0A0J7JFD7). Put plainly: Hydrolysis of acetyllysine substrates. The class given is biochemical. The note with it: acetyllysine (Aly) and MSH2-based peptide substrates; LC-MS assay.
In test [2] the target is T1, msAPAH. Description: Isothermal titration calorimetry. To be noted: ITC, 25 °C; inhibitor 7 with 5% (v/v) DMSO. The class given is binding.
The target in test [3] is T1, msAPAH. Put plainly: Inhibitory activity measurements. The class given is biochemical.
The target in test [4] is T1, msAPAH. Description: Steady-state kinetics of acetylpolyamine hydrolysis. The class given is biochemical. The note with it: 25° C, pH 7.75, triplicate; N^8-acetylspermidine value at 0 mM KCl.

`CC(=O)NCCCC[C@H](N)C(N)=O` [Aly-NH2]: the “catalytic activity for hydrolysis” value on msAPAH [1] is “No significant catalytic activity”.
On to `NCCCNCCCCCS` [Inhibitor 3, 5-[(3-aminopropyl)amino]pentane-1-thiol], for which the “dissociation constant / enthalpogram fit (in words)” value on msAPAH [2] is reported as “nanomolar dissociation constant”. The molecule also gave an IC50 against msAPAH [3] of 160 µM.
As for `NCCCCCC(=O)NO` [Inhibitor 4, 6-amino-N-hydroxyhexanamide], half-maximal inhibition against msAPAH [3] (IC50) was put at 410 µM.
`NCCCCCCCC(=O)NO` [Inhibitor 5, 8-amino-N-hydroxyoctanamide] showed an IC50 against msAPAH [3] of 380 µM.
For `NCCCNCCCCCC(=O)NO` [Inhibitor 6, 6-[(3-aminopropyl)amino]-N-hydroxyhexanamide], on msAPAH [2], the “dissociation constant / enthalpogram fit (in words)” value is “micromolar dissociation constants”. At msAPAH [3], this molecule had an IC50 of 470 µM.
On to `CN(C)c1ccc(C(=O)NCCCCCCC(=O)NO)cc1` [Inhibitor 7, reference compound], for which the “dissociation constant / enthalpogram fit (in words)” value at msAPAH [2] was “could not be fit to binding curves”.
Consider `CC(=O)NCCCCCN` [acetylcadaverine], for which the Km on msAPAH [4] worked out at 800 ± 300 µM.
Still for that read-out and setting: with `CC(=O)NCCCCN` [acetylputrescine] the figure was 44 ± 10 µM.
On the same count and under the same terms, with `CC(=O)NCCCNCCCCNCCCN` [acetylspermine] the figure was 1300 ± 600 µM.
